In patent publication US11440923B2, “Substituted macrocyclic indole derivatives” (Bayer Aktiengesellschaft, priority 2017, dated 2022):
Counter-ions that a name gives are not always drawn. Like-named read-outs stand apart in the source and are kept apart here.

How the values were obtained:
Format in all cases: cell-based
SUDHL10 cells [1] = test: Induction of caspase-3/7 activity in SUDHL10 cells (Assay 4)
Protocol: (§1) Induction of Caspase-3/7 Activity Upon Treatment of Cells with Selected Compounds
(§2) The BH3-domain of MCL-1 sequesters pro-apoptotic proteins, thereby inhibiting apoptosis. In contrast, MCL-1 inhibitors are expected to antagonize this effect leading to an increase in apoptosis, which can be determined by measuring the activity of caspase-3/7.
(§3) The activity of caspase-3/7 was determined in DLBCL (Diffuse large B-cell lymphoma) cell lines (SUDHL5 and SUDHL10) upon treatment with different compounds, using the Caspase-Glo® 3/7 reagent from Promega (G8092).
(§4) As a control, medium without cells was also added to the plate. Cells were incubated in a humidified incubator at 37° C. overnight.
(§5) Rim wells were excluded. The cells were incubated for 3 h hours in a humidified incubator at 37° C. After this incubation, 30 μL of Caspase-Glo® 3/7 reagent (Promega G8092) was added to each well using the Multidrop Combi Reagent Dispenser, followed by 1 h incubation at 37° C. Finally, luminescence was read at 0.1 ms, with a gain of 3000 using the PHERAstar FS microplate reader (BMG Labtech).
(§6) For the evaluation of the results, the background measured with “medium-only” was subtracted from all other values. Then, the values were normalized to DMSO-only treated cells (every value was divided by the mean of the DMSO control).

SUDHL10 cells [2] = test: Induction of cytotoxicity in SUDHL10 cells (Assay 6); conditions: 5 h, CellTiter-Glo; read-out: Cytotox SUDHL10 IC50 (median)
Protocol: (§7) Assay 6 Induction of Cytotoxicity Upon Treatment of Cells with Selected Compounds
(§8) In principle, compounds that induce apoptosis will concomitantly induce cell cytotoxicity. Therefore, cytotoxicity assays were run in parallel in SUDHL5 and SUDHL10 cells.
(§9) As a control, medium without cells was also added to the plate. Cells were incubated in a humidified incubator at 37° C. overnight. […] Rim wells were excluded. The cells were incubated for 5 h hours in a humidified incubator at 37° C. After this incubation, 30 μL of CellTiter-Glo® Luminescent Cell Viability reagent (Promega, G7573) was added to each well using the Multidrop Combi Reagent Dispenser, followed by 15 min incubation on a shaker at room temperature. Finally, luminescence was read at 0.1 ms, with a gain of 3000 using the PHERAstar FS microplate reader (BMG Labtech).

SUDHL5 cells [3] = test: Induction of cytotoxicity in SUDHL5 cells (Assay 6); conditions: 5 h, CellTiter-Glo; read-out: Cytotox SUDHL5 IC50 (median)
Protocol: as §7, §8, §9

AMO-1 cells = test: Antiproliferation assay AMO-1 (Assay 7)
Protocol: (§10) Assessment of the Anti-Proliferative Effect of Compounds in Different Cell Lines
(§11) The impact of compounds on the proliferation of different cell lines was assessed using the CellTiter-Glo® Luminescent Cell Viability reagent from Promega (G7573).
(§12) In parallel, cells were plated in a reference (day 0) plate for time zero determination. Cells were incubated in a humidified incubator at 37° C. overnight.
(§13) Rim wells were excluded. The cells were incubated for 72 h hours in a humidified incubator at 37° C. The day 0 plate was measured by adding 30 μL/well of CTG solution (CellTiter-Glo® Luminescent Cell Viability reagent, Promega G7573) to time zero wells in the reference plate followed by a 10 minutes incubation and luminescence reading at 0.1 ms. using the PHERAstar FS microplate reader (BMG Labtech).
(§14) After 72 h incubation, the treated plates were measured in the same way as the day 0 plate mentioned above. The Bella DRC Master Sheet was used to calculate IC50s, with CI=day 0 values and C0=DMSO control values.

SUDHL5 cells [4] = test: Antiproliferation assay SUDHL5 (Assay 7)
Protocol: as §10, §11, §12, §13, §14

HMC-1-8 cells = test: Antiproliferation assay HMC-1-8 (Assay 7)
Protocol: as §10, §11, §12, §13, §14

SUDHL5 cells [5] = test: Induction of caspase-3/7 activity in SUDHL5 cells (Assay 4)
Protocol: as §1, §2, §3, §4, §5, §6

[6] = caspase-3/7 induction, 3 h; read-out: Caspase SUDHL10 EC50 (median)
[7] = 72 h, CellTiter-Glo; read-out: Antiproli AMO-1 IC50 median
[8] = 72 h, CellTiter-Glo; read-out: Antiproli SUDHL5 IC50 (median)
[9] = 72 h, CellTiter-Glo; read-out: Antiproli HMC-1-8 IC50 median
[10] = caspase-3/7 induction, 3 h; read-out: Caspase SUDHL5 EC50 (median)

Structure (SMILES) | EC50 (SUDHL10 cells [1]; [6]) [µM] | IC50 (SUDHL5 cells [4]; [8]) [nM] | EC50 (SUDHL5 cells [5]; [10]) [nM] | IC50 (SUDHL10 cells [2]) [µM] | IC50 (SUDHL5 cells [3]) [nM] | IC50 (AMO-1 cells; [7]) [µM] | IC50 (HMC-1-8 cells; [9]) [µM] | EC50 (SUDHL10 cells [1]; read-out: Caspase SUDHL10 EC50 (median); caspase-3/7 induction, 3 h) [µM] | IC50 (AMO-1 cells; read-out: Antiproli AMO-1 IC50 median; 72 h, CellTiter-Glo) [µM] | IC50 (SUDHL5 cells [4]; read-out: Antiproli SUDHL5 IC50 (median); 72 h, CellTiter-Glo) [nM] | IC50 (HMC-1-8 cells; read-out: Antiproli HMC-1-8 IC50 median; 72 h, CellTiter-Glo) [µM] | EC50 (SUDHL5 cells [5]; read-out: Caspase SUDHL5 EC50 (median); caspase-3/7 induction, 3 h) [nM]
CCc1c2c(nn1C)C(CCN(C)C)OCCCCn1c(C(=O)O)c(CCCOc3cccc4cc(F)ccc34)c3ccc(Cl)c-2c31 (single isomer, unassigned) [Example 85, 4-chloro-15-[2-(dimethylamino)ethyl]-3-ethyl-7-{3-[(6-fluoronaphthalen-1-yl)oxy]propyl}-2-methyl-2,10,11,12,13,15-hexahydropyrazolo[4′,3′:9,10][1,6]oxazacycloundecino[8,7,6-hi]indole-8-carboxylic Acid] | 1.6 | 910 | 950 | 2 | 870 | 5.17 | > 33 | – | – | – | – | –
CCc1c2c(nn1C)C(CCC1CCOCC1)OCCCCn1c(C(=O)O)c(CCCOc3cccc4cc(F)ccc34)c3ccc(Cl)c-2c31 (single isomer, unassigned; enantiomer 2) [Example 64, (−)-4-chloro-3-ethyl-7-{3-[(6-fluoronaphthalen-1-yl)oxy]propyl}-2-methyl-15-[2-(oxan-4-yl)ethyl]-2,10,11,12,13,15-hexahydropyrazolo[4′,3′:9,10][1,6]oxazacycloundecino[8,7,6-hi]indole-8-carboxylic Acid—N-ethylethanamine Salt (Enantiomer 2)] | – | – | – | 2.6 | 810 | – | – | 1.3 | 1.03 | 1600 | 7.51 | 740
CCc1c2c(nn1C)C(CCC(C)(C)O)OCCCCn1c(C(=O)O)c(CCCOc3cccc4cc(F)ccc34)c3ccc(Cl)c-2c31 (single isomer, unassigned; enantiomer 2) [Example 76, (−)-4-chloro-3-ethyl-7-{3-[(6-fluoronaphthalen-1-yl)oxy]propyl}-15-(3-hydroxy-3-methylbutyl)-2-methyl-2,10,11,12,13,15-hexahydropyrazolo[4′,3′:9,10][1,6]oxazacycloundecino[8,7,6-hi]indole-8-carboxylic Acid—N-ethylethanamine Salt (Enantiomer 2)] | 5.8 | 4600 | 3300 | 5.2 | 3600 | 3.87 | 13 | – | – | – | – | –

The next lines start with results.

EC50 (SUDHL10 cells [1]; [6]) [µM] | IC50 (SUDHL5 cells [4]; [8]) [nM] | EC50 (SUDHL5 cells [5]; [10]) [nM] | Structure (SMILES) | IC50 (SUDHL10 cells [2]) [µM] | IC50 (SUDHL5 cells [3]) [nM] | IC50 (AMO-1 cells; [7]) [µM] | IC50 (HMC-1-8 cells; [9]) [µM] | EC50 (SUDHL10 cells [1]; read-out: Caspase SUDHL10 EC50 (median); caspase-3/7 induction, 3 h) [µM] | IC50 (AMO-1 cells; read-out: Antiproli AMO-1 IC50 median; 72 h, CellTiter-Glo) [µM] | IC50 (SUDHL5 cells [4]; read-out: Antiproli SUDHL5 IC50 (median); 72 h, CellTiter-Glo) [nM] | IC50 (HMC-1-8 cells; read-out: Antiproli HMC-1-8 IC50 median; 72 h, CellTiter-Glo) [µM] | EC50 (SUDHL5 cells [5]; read-out: Caspase SUDHL5 EC50 (median); caspase-3/7 induction, 3 h) [nM]
0.34 | 420 | 230 | CCc1c2c(nn1C)C(CCN(C)C)OCCCCn1c(C(=O)O)c(CCCOc3cccc4cc(F)ccc34)c3ccc(Cl)c-2c31 (single isomer, unassigned) [Example 83, 4-chloro-15-[2-(dimethylamino)ethyl]-3-ethyl-7-{3-[(6-fluoronaphthalen-1-yl)oxy]propyl}-2-methyl-2,10,11,12,13,15-hexahydropyrazolo[4′,3′:9,10][1,6]oxazacycloundecino[8,7,6-hi]indole-8-carboxylic Acid] | 0.33 | 270 | 0.65 | 8.74 | – | – | – | – | –
5.4 | 3100 | 1800 | CCc1c2c(nn1C)C(CCN(C)C)OCCCCn1c(C(=O)O)c(CCCOc3cccc4cc(F)ccc34)c3ccc(Cl)c-2c31 (single isomer, unassigned) [Example 84, 4-chloro-15-[2-(dimethylamino)ethyl]-3-ethyl-7-{3-[(6-fluoronaphthalen-1-yl)oxy]propyl}-2-methyl-2,10,11,12,13,15-hexahydropyrazolo[4′,3′:9,10][1,6]oxazacycloundecino[8,7,6-hi]indole-8-carboxylic Acid] | 4.4 | 1700 | 9.56 | > 33 | – | – | – | – | –
5.4 | 2200 | 3700 | CCc1c2c(nn1C)C(CCN1CC(F)(F)C1)OCCCCn1c(C(=O)O)c(CCCOc3cccc4cc(F)ccc34)c3ccc(Cl)c-2c31 (single isomer, unassigned; (-)) [Example 79, (−)-4-chloro-15-[2-(3,3-difluoroazetidin-1-yl)ethyl]-3-ethyl-7-{3-[(6-fluoronaphthalen-1-yl)oxy]propyl}-2-methyl-2,10,11,12,13,15-hexahydropyrazolo[4′,3′:9,10][1,6]oxazacycloundecino[8,7,6-hi]indole-8-carboxylic Acid—N-ethylethanamine Salt] | 3.8 | 4100 | 3.7 | 23.5 | – | – | – | – | –
